Source: PMC8929358 (Pharmacology Research & Perspectives, 2021)

How the values were obtained:
[1] = healthy subjects; oral; cited from earlier work
[2] = Sulfate conjugation of opicapone in human liver S9; assay type: in vitro ADME; details: human liver S9 fraction (HLS9), pH 7.4
[3] = molecular target: T1, UGT 2B7 (Homo sapiens, UniProt P16662); experiment: Glucuronidation of opicapone by recombinant UGT2B7; assay type: in vitro ADME; details: 20 μM opicapone
T1 sequence (P16662 24-529): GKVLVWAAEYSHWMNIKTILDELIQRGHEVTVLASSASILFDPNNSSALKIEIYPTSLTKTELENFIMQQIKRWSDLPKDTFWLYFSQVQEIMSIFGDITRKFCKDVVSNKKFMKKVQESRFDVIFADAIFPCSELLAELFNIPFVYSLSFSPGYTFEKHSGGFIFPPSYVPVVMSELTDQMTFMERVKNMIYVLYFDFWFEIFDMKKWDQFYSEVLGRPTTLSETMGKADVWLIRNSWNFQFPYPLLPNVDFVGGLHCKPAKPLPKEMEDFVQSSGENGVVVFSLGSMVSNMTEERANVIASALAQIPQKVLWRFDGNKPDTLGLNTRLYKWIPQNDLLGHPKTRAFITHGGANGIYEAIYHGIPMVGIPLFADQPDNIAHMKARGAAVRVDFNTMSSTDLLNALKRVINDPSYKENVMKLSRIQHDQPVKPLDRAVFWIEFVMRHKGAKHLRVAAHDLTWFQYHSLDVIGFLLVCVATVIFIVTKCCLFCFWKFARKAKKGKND

[4] = Glucuronidation of opicapone in human liver microsomes; assay type: in vitro ADME; details: human liver microsomes (HLM), pH 7.5
[5] = assay type: in vivo, rat; details: rat, plasma, po, 1 g/kg
[6] = molecular target: T2, UGT 2B15 (Homo sapiens, UniProt P54855); experiment: Glucuronidation of opicapone by recombinant UGT2B15; assay type: in vitro ADME; details: 20 μM opicapone
T2 sequence (P54855 24-530): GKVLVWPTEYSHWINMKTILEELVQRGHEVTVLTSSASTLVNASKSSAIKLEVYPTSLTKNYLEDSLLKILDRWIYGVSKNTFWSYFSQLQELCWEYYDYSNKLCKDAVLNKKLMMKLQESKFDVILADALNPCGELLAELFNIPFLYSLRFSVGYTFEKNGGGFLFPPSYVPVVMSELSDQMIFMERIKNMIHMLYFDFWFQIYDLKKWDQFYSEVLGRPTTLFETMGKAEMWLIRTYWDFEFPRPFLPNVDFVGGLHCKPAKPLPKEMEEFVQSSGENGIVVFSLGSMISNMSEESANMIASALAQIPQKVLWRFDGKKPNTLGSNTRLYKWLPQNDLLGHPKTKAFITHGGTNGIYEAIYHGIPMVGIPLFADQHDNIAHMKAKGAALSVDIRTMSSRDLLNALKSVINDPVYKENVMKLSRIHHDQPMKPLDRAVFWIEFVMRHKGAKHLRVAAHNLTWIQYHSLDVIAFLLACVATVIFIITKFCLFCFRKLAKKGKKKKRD

[7] = molecular target: T3, UGT 2B17 (Homo sapiens, UniProt O75795); experiment: Glucuronidation of opicapone by recombinant UGT2B17; assay type: in vitro ADME; details: 20 μM opicapone; incubation period of 60 min
T3 sequence (O75795 24-530): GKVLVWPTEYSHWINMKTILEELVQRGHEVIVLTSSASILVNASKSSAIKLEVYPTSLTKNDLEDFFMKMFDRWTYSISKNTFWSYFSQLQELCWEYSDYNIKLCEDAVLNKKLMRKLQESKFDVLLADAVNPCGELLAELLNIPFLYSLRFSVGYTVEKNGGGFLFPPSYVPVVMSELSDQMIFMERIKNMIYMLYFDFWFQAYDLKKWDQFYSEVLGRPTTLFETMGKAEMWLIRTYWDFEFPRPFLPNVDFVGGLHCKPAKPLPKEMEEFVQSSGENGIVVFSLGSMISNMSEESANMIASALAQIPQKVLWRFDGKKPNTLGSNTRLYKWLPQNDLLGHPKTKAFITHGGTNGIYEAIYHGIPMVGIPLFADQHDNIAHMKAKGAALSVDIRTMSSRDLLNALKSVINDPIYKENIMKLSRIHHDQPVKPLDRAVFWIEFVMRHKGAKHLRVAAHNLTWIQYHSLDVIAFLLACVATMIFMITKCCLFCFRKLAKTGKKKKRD

[8] = low solubility compound; ref unpublished information; cited from earlier work
[9] = molecular target: T4, UGT1A6 (Homo sapiens, UniProt P19224); experiment: Glucuronidation of opicapone by recombinant UGT1A6; assay type: in vitro ADME
T4 sequence (P19224 27-532): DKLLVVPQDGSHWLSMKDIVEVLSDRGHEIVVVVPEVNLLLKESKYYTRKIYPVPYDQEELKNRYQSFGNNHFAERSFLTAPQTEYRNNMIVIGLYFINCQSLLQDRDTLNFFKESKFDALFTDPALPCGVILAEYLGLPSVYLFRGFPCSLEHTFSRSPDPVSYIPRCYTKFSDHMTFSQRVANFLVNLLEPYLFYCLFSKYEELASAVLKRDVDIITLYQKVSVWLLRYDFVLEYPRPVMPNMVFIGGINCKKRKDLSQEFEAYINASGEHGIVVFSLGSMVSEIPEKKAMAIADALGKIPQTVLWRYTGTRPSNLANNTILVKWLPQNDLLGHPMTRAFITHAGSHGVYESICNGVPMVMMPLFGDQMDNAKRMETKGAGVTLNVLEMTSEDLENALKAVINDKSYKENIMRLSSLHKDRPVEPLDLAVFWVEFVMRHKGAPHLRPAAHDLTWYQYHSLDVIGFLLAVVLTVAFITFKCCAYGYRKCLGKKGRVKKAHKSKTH

[10] = Sulfate conjugation of opicapone in human intestinal S9; assay type: in vitro ADME; details: human intestinal S9 fraction (HIS9), pH 7.4

Km [2]: 20.5 ± 2.6 µM
Formation of BIA 9-1106 (screening) [3]: little amounts
Km [4]: 27.9 ± 6.4 µM
Cmax [5]: 7090 ng/mL
Formation of BIA 9-1106 (screening) [6]: little amounts
Metabolite formation (screening) [7]: No metabolite formation was detected
Formation of BIA 9-1106 (screening) ([9]; 20 μM opicapone): little amounts
Glucuronidation kinetics (form of the rate curve) ([9]; opicapone 1 to 250 μM): linear
Km [10]: 8.2 ± 1.1 µM
SMILES: Cc1c(Cl)c(C)[n+]([O-])c(Cl)c1-c1noc(-c2cc(O)c(O)c([N+](=O)[O-])c2)n1 [opicapone, 2,5‐dichloro‐3‐(5‐(3,4‐dihydroxy‐5‐nitrophenyl)‐1,2,4‐oxadiazol‐3‐yl)‐4,6‐dimethylpyridine 1‐oxide]
Apparent terminal elimination half-life (t1/2) [1]: 48 to 192 min
Biopharmaceutics Classification System class [8]: class II
